# Assay results: PubChem BioAssay AID248 (DTP/NCI, 2004)
# Where “and” joins values, the source holds several entries; their conditions need not be identical. Identical values can stand only once. Inconclusive results and toxic doses are left out.
# Tested on: L1210 leukemia ip in BDF1 mice, survival T/C
# Assay: NCI In Vivo Anticancer Drug Screen. Data for tumor model L1210 Leukemia (intraperitoneal) in B6D2F1 (BDF1) mice
# Settings: endpoint: mean survival time, higher = longer survival
# How it was run: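 Value reflects the ratio of survival in compound-treated mice to survival in vehicle-treated controls, with both groups carrying the same transplanted tumor.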
# [1] = dose: 100.0 mg/kg/injection, schedule: Q01DX009 (ip), vehicle: Klucel (hydroxypropylcellulose) (HPC)
# [2] = dose: 100.0 mg/kg/injection, schedule: Q04DX003 (ip), vehicle: Klucel (hydroxypropylcellulose) (HPC)
# [3] = dose: 200.0 mg/kg/injection, schedule: Q04DX003 (ip), vehicle: Klucel (hydroxypropylcellulose) (HPC)
# [4] = dose: 400.0 mg/kg/injection, schedule: Q04DX003 (ip), vehicle: Klucel (hydroxypropylcellulose) (HPC)
# [5] = dose: 200.0 mg/kg/injection, schedule: Q01DX009 (ip), vehicle: Klucel (hydroxypropylcellulose) (HPC)
# [6] = dose: 400.0 mg/kg/injection, schedule: Q01DX009 (ip), vehicle: Klucel (hydroxypropylcellulose) (HPC)
# [7] = dose: 100.0 mg/kg/injection, schedule: Q04DX002 (ip), vehicle: saline with Tween-80
# [8] = dose: 200.0 mg/kg/injection, schedule: Q04DX002 (ip), vehicle: saline with Tween-80
# [9] = dose: 400.0 mg/kg/injection, schedule: Q04DX002 (ip), vehicle: saline with Tween-80
# [10] = dose: 100.0 mg/kg/injection, schedule: Q04DX002 (ip), vehicle: Klucel (hydroxypropylcellulose) (HPC)
# [11] = dose: 200.0 mg/kg/injection, schedule: Q04DX002 (ip), vehicle: Klucel (hydroxypropylcellulose) (HPC)
# [12] = dose: 400.0 mg/kg/injection, schedule: Q04DX002 (ip), vehicle: Klucel (hydroxypropylcellulose) (HPC)
# [13] = dose: 6.25 mg/kg/injection, schedule: Q04DX003 (ip), vehicle: saline
smiles,measurement,setting,value
CN(Cc1cnc2nc(N)nc(N)c2n1)c1ccc(C(=O)NC(CCC(=O)O)C(=O)O)c2ccccc12 (stereo not drawn),T/C,"dose: 2.0 mg/kg/injection, schedule: Q01DX009 (ip), vehicle: saline",159 % of control
same,T/C,"dose: 2.0 mg/kg/injection, schedule: Q04DX003 (ip), vehicle: saline",120 % of control
same,T/C,"dose: 4.0 mg/kg/injection, schedule: Q01DX009 (ip), vehicle: saline",152 % of control and 172 % of control
same,T/C,"dose: 4.0 mg/kg/injection, schedule: Q04DX003 (ip), vehicle: saline",122 % of control
same,T/C,"dose: 8.0 mg/kg/injection, schedule: Q01DX009 (ip), vehicle: saline",156 % of control and 160 % of control
same,T/C,"dose: 8.0 mg/kg/injection, schedule: Q04DX003 (ip), vehicle: saline",106 % of control
same,T/C,"dose: 13.0 mg/kg/injection, schedule: Q01DX009 (ip), vehicle: saline",123 % of control
same,T/C,"dose: 64.0 mg/kg/injection, schedule: Q04DX003 (ip), vehicle: saline",115 % of control
same,T/C,"dose: 128.0 mg/kg/injection, schedule: Q04DX003 (ip), vehicle: saline",101 % of control
Nc1ccc(Cc2ccc(Br)cc2)cc1,T/C,"dose: 75.0 mg/kg/injection, schedule: Q01DX001 (ip), vehicle: acetone",91 % of control
same,T/C,"dose: 150.0 mg/kg/injection, schedule: Q01DX001 (ip), vehicle: acetone",94 % of control
same,T/C,"dose: 300.0 mg/kg/injection, schedule: Q01DX001 (ip), vehicle: acetone",94 % of control
CN(C)C1CCCCC1,T/C,"dose: 25.0 mg/kg/injection, schedule: Q01DX009 (ip), vehicle: Klucel (hydroxypropylcellulose) (HPC)",105 % of control
same,T/C,"dose: 50.0 mg/kg/injection, schedule: Q01DX009 (ip), vehicle: Klucel (hydroxypropylcellulose) (HPC)",100 % of control
same,T/C,[1],114 % of control
same,T/C,[2],117 % of control
same,T/C,[3],101 % of control
same,T/C,[4],96 % of control
O=C(CNC(=O)Nc1cccc(Cl)c1)N/N=C/c1cccc([N+](=O)[O-])c1,T/C,"dose: 50.0 mg/kg/injection, schedule: Q01DX009 (ip), vehicle: saline with Tween-80",98 % of control
same,T/C,"dose: 100.0 mg/kg/injection, schedule: Q01DX009 (ip), vehicle: saline with Tween-80",95 % of control
same,T/C,"dose: 200.0 mg/kg/injection, schedule: Q01DX009 (ip), vehicle: saline with Tween-80",98 % of control
CC(=O)OCC12CCC(O1)C1C(=O)OC(=O)C12 (stereo not drawn),T/C,[1],91 % of control
same,T/C,[2],97 % of control
same,T/C,[5],88 % of control
same,T/C,[3],98 % of control
same,T/C,[6],93 % of control
same,T/C,[4],90 % of control
COc1ccc(-c2sc(/N=C/c3ccc(N(C)CCC#N)cc3)c(C#N)c2C)cc1OC,T/C,"dose: 100.0 mg/kg/injection, schedule: Q01DX001 (ip), vehicle: saline with Tween-80",100 % of control
same,T/C,[7],103 % of control and 118 % of control
same,T/C,"dose: 100.0 mg/kg/injection, schedule: Q04DX003 (ip), vehicle: saline with Tween-80",102 % of control and 91 % of control
same,T/C,"dose: 200.0 mg/kg/injection, schedule: Q01DX001 (ip), vehicle: saline with Tween-80",91 % of control
same,T/C,[8],93 % of control and 96 % of control
same,T/C,"dose: 200.0 mg/kg/injection, schedule: Q04DX003 (ip), vehicle: saline with Tween-80",95 % of control and 98 % of control
same,T/C,"dose: 400.0 mg/kg/injection, schedule: Q01DX001 (ip), vehicle: saline with Tween-80",100 % of control
same,T/C,[9],104 % of control and 106 % of control
same,T/C,"dose: 400.0 mg/kg/injection, schedule: Q04DX003 (ip), vehicle: saline with Tween-80",102 % of control and 91 % of control
O=C(COc1ccc([N+](=O)[O-])cc1Cl)Nc1ccccc1,T/C,"dose: 100.0 mg/kg/injection, schedule: Q01DX009 (ip), vehicle: acetone",90 % of control
same,T/C,"dose: 100.0 mg/kg/injection, schedule: Q04DX003 (ip), vehicle: acetone",95 % of control
same,T/C,"dose: 200.0 mg/kg/injection, schedule: Q04DX003 (ip), vehicle: acetone",95 % of control
same,T/C,"dose: 400.0 mg/kg/injection, schedule: Q04DX003 (ip), vehicle: acetone",94 % of control
C(=N\N1CCN(/N=C/c2c[nH]c3ccccc23)CC1)/c1c[nH]c2ccccc12,T/C,"dose: 100.0 mg/kg/injection, schedule: Q01DX001 (ip), vehicle: saline",94 % of control
same,T/C,"dose: 200.0 mg/kg/injection, schedule: Q01DX001 (ip), vehicle: saline",94 % of control
same,T/C,"dose: 400.0 mg/kg/injection, schedule: Q01DX001 (ip), vehicle: saline",94 % of control
O=C(O)c1ccccc1N=Cc1ccccc1,T/C,[7],93 % of control
same,T/C,[8],120 % of control
same,T/C,[9],101 % of control
COc1cc(/C(C)=C2/SC(=S)NC2=O)cc(OC)c1OC,T/C,"dose: 100.0 mg/kg/injection, schedule: Q01DX001 (ip), vehicle: carboxymethylcellulose (CMC)",92 % of control
same,T/C,"dose: 200.0 mg/kg/injection, schedule: Q01DX001 (ip), vehicle: carboxymethylcellulose (CMC)",90 % of control
same,T/C,"dose: 400.0 mg/kg/injection, schedule: Q01DX001 (ip), vehicle: carboxymethylcellulose (CMC)",95 % of control
CCOC(=O)Cc1nc2ccc(C)cc2[nH]1,T/C,[10],100 % of control
same,T/C,[11],100 % of control
same,T/C,[12],115 % of control
COc1cc2c(cc1OC)C(CC(C)C)=[N+](C)CC2,T/C,"dose: 25.0 mg/kg/injection, schedule: Q04DX002 (ip), vehicle: saline with Tween-80",93 % of control
same,T/C,"dose: 50.0 mg/kg/injection, schedule: Q04DX002 (ip), vehicle: saline with Tween-80",93 % of control
same,T/C,[7],93 % of control
c1cc(-n2nnc3cnccc32)ccn1,T/C,[13],100 % of control
same,T/C,"dose: 12.5 mg/kg/injection, schedule: Q04DX003 (ip), vehicle: saline",91 % of control
same,T/C,"dose: 25.0 mg/kg/injection, schedule: Q04DX003 (ip), vehicle: saline",102 % of control
same,T/C,"dose: 100.0 mg/kg/injection, schedule: Q04DX003 (ip), vehicle: saline",86 % of control
C=C1CC(CCCC2CC(=C)C(=O)O2)OC1=O (stereo not drawn),T/C,"dose: 100.0 mg/kg/injection, schedule: Q04DX002 (ip), vehicle: saline",101 % of control
same,T/C,"dose: 200.0 mg/kg/injection, schedule: Q04DX002 (ip), vehicle: saline",111 % of control
CC(=O)OC1CC2(CO2)C2CC=C(C)C2C2OC(=O)C(C)C12 (stereo not drawn),T/C,"dose: 12.5 mg/kg/injection, schedule: Q04DX002 (ip), vehicle: saline",110 % of control
same,T/C,"dose: 25.0 mg/kg/injection, schedule: Q04DX002 (ip), vehicle: saline",100 % of control
same,T/C,"dose: 50.0 mg/kg/injection, schedule: Q04DX002 (ip), vehicle: saline",95 % of control
same,T/C,[10],90 % of control
same,T/C,[11],100 % of control
CCOC(=O)c1ccc(Oc2ncc([N+](=O)[O-])s2)cc1,T/C,"dose: 1.56 mg/kg/injection, schedule: Q01DX001 (ip), vehicle: saline",107 % of control
same,T/C,"dose: 1.56 mg/kg/injection, schedule: Q04DX003 (ip), vehicle: saline",96 % of control
same,T/C,"dose: 3.12 mg/kg/injection, schedule: Q01DX001 (ip), vehicle: saline",110 % of control
same,T/C,"dose: 3.12 mg/kg/injection, schedule: Q04DX003 (ip), vehicle: saline",100 % of control
same,T/C,"dose: 6.25 mg/kg/injection, schedule: Q01DX001 (ip), vehicle: saline",98 % of control
same,T/C,[13],96 % of control
same,T/C,"dose: 9.2 mg/kg/injection, schedule: Q04DX003 (ip), vehicle: saline",103 % of control
same,T/C,"dose: 14.0 mg/kg/injection, schedule: Q04DX003 (ip), vehicle: saline",98 % of control
same,T/C,"dose: 21.0 mg/kg/injection, schedule: Q04DX003 (ip), vehicle: saline",96 % of control
same,T/C,"dose: 29.0 mg/kg/injection, schedule: Q04DX003 (ip), vehicle: saline with Tween-80",103 % of control
same,T/C,"dose: 29.0 mg/kg/injection, schedule: Q04DX003 (ip), vehicle: saline",93 % of control
same,T/C,"dose: 45.0 mg/kg/injection, schedule: Q04DX003 (ip), vehicle: saline",102 % of control
same,T/C,"dose: 65.0 mg/kg/injection, schedule: Q04DX003 (ip), vehicle: saline with Tween-80",86 % of control
O=c1[nH]cnc2ncnn12,T/C,"dose: 100.0 mg/kg/injection, schedule: Q01DX001 (ip), vehicle: alkali diluted with saline",104 % of control
same,T/C,"dose: 200.0 mg/kg/injection, schedule: Q01DX001 (ip), vehicle: alkali diluted with saline",109 % of control
same,T/C,"dose: 400.0 mg/kg/injection, schedule: Q01DX001 (ip), vehicle: alkali diluted with saline",104 % of control
Cc1cccc(NC(=O)Oc2ccc3c(C)cc(=O)oc3c2)c1,T/C,[1],110 % of control
same,T/C,[10],93 % of control
same,T/C,[5],98 % of control
same,T/C,[11],96 % of control
same,T/C,[6],94 % of control
same,T/C,[12],93 % of control
